Reference: patent US7235584B2, “Non-psychotropic cannabinoids” (Pharmos Corporation, priority 2000, dated 2007)

System: rat model of myocardial ischemia
Assay: Rat model of myocardial ischemia and reperfusion
Assay type: in vivo, Sprague-Dawley rats
Conditions: given 15 minutes before occlusion; 45 minutes occlusion, 4 hours reperfusion
Excerpt: A rat model of ischemia and reperfusion was used to test the ability of compounds to reduce the volumes of infarction is considered a measure of their potential as cardioprotectors.
The following model of myocardial infarction and heart failure was used to test the ability of compounds to reduce the volumes of infarction is considered a measure of their potential as cardioprotectors.
The methods used are essentially as described in Leor and Kloner (Leor and Klonner, Am. J Cardiol. 75:1292–3 1995). The experiment was performed in a masked fashion. In brief, Sprague-Dawley rats were given either vehicle or PRS-211,095 15 minutes before occlusion. They were subjected to 45 minutes of coronary occlusion and 4 hours of reperfusion, after which the coronary artery was reoccluded and 0.25 ml of Unisperse™ dye was injected IV to determine area of risk (AR). The rats were euthanized and hearts were analyzed as to infarct size using a 1% solution of triphenylteuazolium chloride for 15 minutes at 37° C. The area of necrosis (AN) in each heart was expressed as a percentage of the area at risk. This was multiplied by the weight of each slice to obtain the mass of tissue at risk and necrosis.

## CCCCCCC(C)(C)c1cc(O)c2c(c1)OC(C)(C)C1CC=C(CSc3ncc[nH]3)CC21 (single isomer, unassigned; (+)) [211,092-000]
  infarct size (AN/AR, AN/LV), FIG. 13: clear decrease in infarct size
